In patent US9718808B2, “Inhibitors of the renal outer medullary potassium channel” (Merck Sharp & Dohme Corp., priority 2014, dated 2017) one finds IC50 data, which are given here for 23 molecules.

The term IC50 denotes the concentration needed to halve the response being measured. Read a low IC50 as greater potency in that assay.

This test has as its target ROMK (Kir1.1) channel (Homo sapiens (Human), UniProt P48048). In words: Thallium Flux Assay. It counts as cell-based. The procedure:
A Thallium Flux Assay was performed on each of the final product compounds of the Examples. This assay has been described previously; see, e.g., PCT Published Application WO 2013/062900.

Chain of ROMK (Kir1.1) channel (P48048 whole entry): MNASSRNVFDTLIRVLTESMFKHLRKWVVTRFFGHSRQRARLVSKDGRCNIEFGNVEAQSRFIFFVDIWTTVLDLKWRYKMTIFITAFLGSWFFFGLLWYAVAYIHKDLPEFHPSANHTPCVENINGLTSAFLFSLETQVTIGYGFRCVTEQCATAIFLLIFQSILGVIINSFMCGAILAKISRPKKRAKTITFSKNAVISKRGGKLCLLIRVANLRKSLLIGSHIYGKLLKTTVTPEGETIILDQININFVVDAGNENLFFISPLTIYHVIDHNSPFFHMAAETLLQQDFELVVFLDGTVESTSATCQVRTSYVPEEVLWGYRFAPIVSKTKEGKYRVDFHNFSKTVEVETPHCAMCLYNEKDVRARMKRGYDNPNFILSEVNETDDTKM

Consider `CC1=C(N2C(=O)[C@]3(CC[C@@H](NCc4ccc5c(c4)Cn4nnnc4-5)CC3)C[C@H]2C)COC1=O` [Example 55, (3R,5s,8S)-8-(((5H-tetrazolo[5,1-a]isoindol-7-yl)methyl)amino)-3-methyl-2-(4-methyl-5-oxo-2,5-dihydrofuran-3-yl)-2-azaspiro[4.5]decan-1-one], for which half-maximal inhibition (IC50) required 15 nM.

For `CC1=C(N2C(=O)[C@]3(CC[C@H](NCc4ccc5c(c4)Cn4nnnc4-5)CC3)C[C@@H]2C)COC1=O` [Example 56, (3S,5r,8S)-8-(((5H-tetrazolo[5,1-a]isoindol-7-yl)methyl)amino)-3-methyl-2-(4-methyl-5-oxo-2,5-dihydrofuran-3-yl)-2-azaspiro[4.5]decan-1-one], the IC50 was 520 nM. Compared with the last molecule, the IC50 is about 35-fold higher.

`CC1=C(N2CC[C@]3(CC[C@@H](NCc4ccc5c(c4F)Cn4nnnc4-5)CC3)C2=O)COC1=O` [Example 59, (5r,8r)-8-(((6-fluoro-5H-tetrazolo[5,1-a]isoindol-7-yl)methyl)amino)-2-(4-methyl-5-oxo-2,5-dihydrofuran-3-yl)-2-azaspiro[4.5]decan-1-one] gave an IC50 of 6 nM.

Take `CC1=C(N2C(=O)[C@]3(CC[C@H](NCc4ccc5c(c4)Cn4nnnc4-5)CC3)C[C@H]2C)COC1=O` [Example 60, (3R,5r,8R)-8-(((5H-tetrazolo[5,1-a]isoindol-7-yl)methyl)amino)-3-methyl-2-(4-methyl-5-oxo-2,5-dihydrofuran-3-yl)-2-azaspiro[4.5]decan-1-one]: the IC50 was determined as 650 nM. Compared with the last molecule, the IC50 is about 110-fold higher.

Consider `CC1=C(N2CC[C@]3(CC[C@@H](NCc4cc5c(cc4C)-c4nnnn4C5)CC3)C2=O)COC1=O` [Example 61, (5r,8r)-2-(4-methyl-5-oxo-2,5-dihydrofuran-3-yl)-8-(((8-methyl-5H-tetrazolo[5,1-a]isoindol-7-yl)methyl)amino)-2-azaspiro[4.5]decan-1-one], for which the IC50 was determined as 23 nM.

The molecule `C[C@H]1C[C@]2(CC[C@H](NCc3ccc4c(c3)Cn3nnnc3-4)CC2)C(=O)N1C1=CC(=O)OC1` [Example 62, (3S,5s,8R)-8-(((5H-tetrazolo[5,1-a]isoindol-7-yl)methyl)amino)-3-methyl-2-(5-oxo-2,5-dihydrofuran-3-yl)-2-azaspiro[4.5]decan-1-one] had an IC50 of 20 nM.

Molecule `C[C@H]1C[C@]2(CC[C@@H](NCc3ccc4c(c3)Cn3nnnc3-4)CC2)C(=O)N1C1=CC(=O)OC1` [Example 63, (3S,5r,8S)-8-(((5H-tetrazolo[5,1-a]isoindol-7-yl)methyl)amino)-3-methyl-2-(5-oxo-2,5-dihydrofuran-3-yl)-2-azaspiro[4.5]decan-1-one] gave an IC50 of 23 nM. This IC50 and that of the molecule before are within 1.5-fold of each other.

`C[C@@H]1C[C@]2(CC[C@H](NCc3ccc4c(c3)Cn3nnnc3-4)CC2)C(=O)N1C1=CC(=O)OC1` [Example 65, (3R,5s,8S)-8-(((5H-tetrazolo[5,1-a]isoindol-7-yl)methyl)amino)-3-methyl-2-(5-oxo-2,5-dihydrofuran-3-yl)-2-azaspiro[4.5]decan-1-one] had an IC50 of 19 nM.

In turn, `C[C@H]1C[C@]2(CC[C@@H](NCc3cnc(-n4cnnn4)cn3)CC2)C(=O)N1C1=CC(=O)OC1` [Example 66, (3S,5r,8S)-8-(((5-(1H-tetrazol-1-yl)pyrazin-2-yl)methyl)amino)-3-methyl-2-(5-oxo-2,5-dihydrofuran-3-yl)-2-azaspiro[4.5]decan-1-one] yielded an IC50 of 7 nM.

With `CC1=C(N2CC[C@]3(CC[C@](C)(NCc4cnc(-n5cnnn5)cn4)CC3)C2=O)COC1=O` [Example 68, (5s,8s)-8-(((5-(1H-tetrazol-1-yl)pyrazin-2-yl)methyl)amino)-8-methyl-2-(4-methyl-5-oxo-2,5-dihydrofuran-3-yl)-2-azaspiro[4.5]decan-1-one], it took 140 nM to reach half-maximal inhibition (IC50).

In turn, `CC1=C(N2CC[C@]3(CC[C@@](C)(NCc4cnc(-n5cnnn5)cn4)CC3)C2=O)COC1=O` [Example 69, (5r,8r)-8-(((5-(1H-tetrazol-1-yl)pyrazin-2-yl)methyl)amino)-8-methyl-2-(4-methyl-5-oxo-2,5-dihydrofuran-3-yl)-2-azaspiro[4.5]decan-1-one] showed an IC50 of 15 nM. This IC50 lies about 9.3-fold lower than the previous one.

`O=C1C=C(N2CC[C@]3(CC[C@@H](NCc4cnc(-n5cnnn5)cn4)CC3)C2=O)CO1` [Example 72, (5r,8r)-8-(((5-(1H-tetrazol-1-yl)pyrazin-2-yl)methyl)amino)-2-(5-oxo-2,5-dihydrofuran-3-yl)-2-azaspiro[4.5]decan-1-one] registered a half-maximal inhibitory concentration (IC50) of 340 nM. This IC50 lies about 23-fold higher than the previous one.

As to `O=C1C=C(N2CC[C@]3(CC[C@H](NCc4cnc(-n5cnnn5)cn4)CC3)C2=O)CO1` [Example 73, (5s,8s)-8-(((5-(1H-tetrazol-1-yl)pyrazin-2-yl)methyl)amino)-2-(5-oxo-2,5-dihydrofuran-3-yl)-2-azaspiro[4.5]decan-1-one], the IC50 was 2000 nM.

`CC1=C(N2CC[C@]3(CC[C@H](NCc4ccc(-n5ncnn5)nn4)CC3)C2=O)COC1=O` [Example 74, (5s,8s)-8-(((6-(2H-tetrazol-2-yl)pyridazin-3-yl)methyl)amino)-2-(4-methyl-5-oxo-2,5-dihydrofuran-3-yl)-2-azaspiro[4.5]decan-1-one]: it took 210 nM to reach half-maximal inhibition (IC50).

The molecule `CC1=C(N2CC[C@]3(CC[C@@H](NCc4ccc(-n5ncnn5)nn4)CC3)C2=O)COC1=O` [Example 75, (5r,8r)-8-(((6-(2H-tetrazol-2-yl)pyridazin-3-yl)methyl)amino)-2-(4-methyl-5-oxo-2,5-dihydrofuran-3-yl)-2-azaspiro[4.5]decan-1-one] came in with an IC50 of 9.3 nM.

`CC1=C(N2CC[C@]3(CC[C@H](N[C@H](CO)c4ccc(-n5cnnn5)nc4)CC3)C2=O)COC1=O` [Example 77] displayed an IC50 of 360 nM.

`CC1=C(N2CC[C@]3(CC[C@@H](NC[C@H](O)c4ccc5c(c4C)COC5=O)CC3)C2=O)COC1=O` [Example 78, (5r,8r)-8-(((R)-2-hydroxy-2-(4-methyl-1-oxo-1,3-dihydroisobenzofuran-5-yl)ethyl)amino)-2-(4-methyl-5-oxo-2,5-dihydrofuran-3-yl)-2-azaspiro[4.5]decan-1-one] gave an IC50 of 210 nM.

`CC1=C(N2CC[C@]3(CC[C@H](NC[C@H](O)c4ccc5c(c4C)COC5=O)CC3)C2=O)COC1=O` [Example 79, (5S,8s)-8-{[(2R)-2-hydroxy-2-(4-methyl-1-oxo-1,3-dihydro-2-benzofuran-5-yl)ethyl]amino}-2-(4-methyl-5-oxo-2,5-dihydrofuran-3-yl)-2-azaspiro[4.5]decan-1-one] yielded an IC50 of 280 nM.

On to `CC1=C(N2CC[C@]3(CC[C@@H](N(C)Cc4ccc(-n5cnnn5)nn4)CC3)C2=O)COC1=O` [Example 80, (5r,8r)-2-(4-methyl-5-oxo-2,5-dihydrofuran-3-yl)-8-(methyl{[6-(1H-tetrazol-1-yl)pyridazin-3-yl]methyl}amino)-2-azaspiro[4.5]decan-1-one], for which the midpoint of inhibition, the IC50, lay at 19 nM.

For `CC1=C(N2CC[C@]3(CC[C@H](N(C)Cc4ccc(-n5cnnn5)nc4)CC3)C2=O)COC1=O` [Example 83], the IC50 is 28 nM. The IC50 values of the last two molecules are within 1.5-fold of each other.

Regarding `CC1=C(N2CC[C@]3(CC[C@@H](N(C)Cc4ccc(-n5cnnn5)nc4)CC3)C2=O)COC1=O` [Example 84], half-maximal inhibition (IC50) was put at 740 nM.

In turn, `CC1=C(N2CC[C@]3(CC[C@H](N(C)[C@H](CO)c4ccc(-n5cnnn5)nc4)CC3)C2=O)COC1=O` [Example 85] returned an IC50 of 190 nM. Compared with the last molecule, the IC50 is about 3.9-fold lower.

In turn, `CC1=C(N2CC[C@]3(CC[C@@H](N(C)[C@H](CO)c4ccc(-n5cnnn5)nc4)CC3)C2=O)COC1=O` [Example 86] gave an IC50 of 480 nM.
